Tests used:
[1] = test system: velvetleaf; assay: Test A pre-/postemergence herbicide test; type: in vivo, Abutilon theophrasti
Method in brief: (§1)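 Planted in loam–sand blend; treated the same day preemergence by directed soil spray, while separately grown plants at one- to two-leaf stage got postemergence spray. Compared visually with untreated controls after approximately 10 days; 100 means complete control.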

[2] = test system: crabgrass, large; assay: Test A pre-/postemergence herbicide test; type: in vivo, Digitaria sanguinalis
Method in brief: as §1

[3] = test system: giant foxtail; assay: Test A pre-/postemergence herbicide test; type: in vivo, Setaria faberii
Method in brief: as §1

[4] = test system: wheat; assay: Test A pre-/postemergence herbicide test; type: in vivo, Triticum aestivum
Method in brief: as §1

[5] = test system: rice; assay: Test C flooded paddy test; type: in vivo, Oryza sativa; settings: Flood
Method in brief: (§2)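 Visual ratings from 0, no effect, to 100, complete control, were made against untreated controls after 13–15 greenhouse days. Compounds had gone straight into paddy water 3 cm above the soil, kept at that depth, on 2-leaf-stage plants.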

[6] = test system: barnyardgrass; assay: Test A pre-/postemergence herbicide test; type: in vivo, Echinochloa crus-galli
Method in brief: as §1

[7] = test system: ducksalad; assay: Test C flooded paddy test; type: in vivo, Heteranthera limosa; settings: Flood
Method in brief: as §2

[8] = test system: pigweed; assay: Test A pre-/postemergence herbicide test; type: in vivo, Amaranthus retroflexus
Method in brief: as §1

[9] = test system: corn; assay: Test A pre-/postemergence herbicide test; type: in vivo, Zea mays
Method in brief: as §1

[10] = test system: barnyardgrass; assay: Test C flooded paddy test; type: in vivo, Echinochloa crus-galli; settings: Flood
Method in brief: as §2

[11] = test system: morningglory; assay: Test A pre-/postemergence herbicide test; type: in vivo, Ipomoea spp.
Method in brief: as §1

[12] = test system: sedge, umbrella; assay: Test C flooded paddy test; type: in vivo, Cyperus difformis; settings: Flood
Method in brief: as §2

[13] = Postemergence, 125 g ai/ha, 0 to 100 scale, 0 no effect, 100 complete control
[14] = Postemergence, 500 g ai/ha, 0 to 100 scale (0 no effect, 100 complete control)
[15] = Preemergence, 125 g ai/ha, visual rating on 0 to 100 scale (0 no effect, 100 complete control)
[16] = preemergence, 500 g ai/ha, 0 to 100 scale
[17] = 125 g ai/ha, scale of 0 to 100 where 0 is no effect and 100 is complete control, 13 to 15 days
[18] = preemergence, 500 g ai/ha, 0 to 100 scale (0 no effect, 100 complete control)
[19] = 31 g ai/ha, scale of 0 to 100 where 0 is no effect and 100 is complete control, 13 to 15 days
[20] = 62 g ai/ha, scale of 0 to 100 where 0 is no effect and 100 is complete control, 13 to 15 days
[21] = Postemergence, 1000 g ai/ha, 0 to 100 scale (0 no effect, 100 complete control)
[22] = Preemergence, 1000 g ai/ha, visual rating on 0 to 100 scale (0 no effect, 100 complete control), approx. 10 days

O=C1NC[C@@H](c2ccc(F)c(F)c2)[C@@H]1C(=O)Nc1ccccc1F [Compound 102]
0: Plant response rating, Velvetleaf [1, 13] | Plant response rating, Velvetleaf [1, 14] | Velvetleaf plant response rating [1, 15] | Plant response rating, Velvetleaf [1, 16] | Plant response rating, Crabgrass, Large [2, 13] | Plant response rating, Crabgrass, Large [2, 14] | Crabgrass, Large plant response rating [2, 15] | Plant response rating, Crabgrass, Large [2, 16] | Plant response rating, Foxtail, Giant [3, 13] | Plant response rating, Foxtail, Giant [3, 14] | Foxtail, Giant plant response rating [3, 15] | Plant response rating, Foxtail, Giant [3, 16] | Plant response rating, Wheat [4, 13] | Plant response rating, Wheat [4, 14] | Wheat plant response rating [4, 15] | Plant response rating, Wheat [4, 16] | Plant response rating, Rice [5, 17] | Plant response rating, Rice ([5]; 250 g ai/ha, scale 0 to 100) | Plant response rating, Rice ([5]; 500 g ai/ha, scale 0 to 100) | Plant response rating, Rice ([5]; 1000 g ai/ha, scale 0 to 100) | Plant response rating, Barnyardgrass [6, 13] | Plant response rating, Barnyardgrass [6, 14] | Barnyardgrass plant response rating [6, 15] | Plant response rating, Barnyardgrass [6, 18] | Plant response rating, Ducksalad [7, 17] | Plant response rating, Ducksalad ([7]; 250 g ai/ha, scale 0 to 100) | Plant response rating, Ducksalad ([7]; 500 g ai/ha, scale 0 to 100) | Plant response rating, Ducksalad ([7]; 1000 g ai/ha, scale 0 to 100) | Plant response rating, Pigweed [8, 13] | Plant response rating, Pigweed [8, 14] | Pigweed plant response rating [8, 15] | Plant response rating, Pigweed [8, 16] | Plant response rating, Corn [9, 13] | Plant response rating, Corn [9, 14] | Corn plant response rating [9, 15] | Plant response rating, Corn [9, 16] | Plant response rating, Barnyardgrass [10, 17] | Plant response rating, Barnyardgrass ([10]; 250 g ai/ha, scale 0 to 100) | Plant response rating, Barnyardgrass ([10]; 500 g ai/ha, scale 0 to 100) | Plant response rating, Barnyardgrass ([10]; 1000 g ai/ha, scale 0 to 100) | Plant response rating, Morningglory [11, 13] | Plant response rating, Morningglory [11, 14] | Morningglory plant response rating [11, 15] | Plant response rating, Morningglory [11, 16] | Plant response rating, Sedge, Umbrella [12, 17] | Plant response rating, Sedge, Umbrella ([12]; 250 g ai/ha, scale 0 to 100) | Plant response rating, Sedge, Umbrella ([12]; 500 g ai/ha, scale 0 to 100) | Plant response rating, Sedge, Umbrella ([12]; 1000 g ai/ha, scale 0 to 100)

CC1NC(=O)C(C(=O)Nc2ccccc2F)C1c1ccc(F)c(F)c1 (mixture of isomers) [Compound 7]
20: Plant response rating, Barnyardgrass [6, 13] | Barnyardgrass plant response rating [6, 15]
70: Foxtail, Giant plant response rating [3, 15] | Plant response rating, Barnyardgrass [6, 14]
50: Plant response rating, Foxtail, Giant [3, 14]
0: Plant response rating, Velvetleaf [1, 13] | Plant response rating, Velvetleaf [1, 14] | Velvetleaf plant response rating [1, 15] | Plant response rating, Velvetleaf [1, 16] | Plant response rating, Foxtail, Giant [3, 13] | Plant response rating, Wheat [4, 13] | Plant response rating, Wheat [4, 14] | Wheat plant response rating [4, 15] | Plant response rating, Wheat [4, 16] | Plant response rating, Rice [5, 19] | Plant response rating, Rice [5, 20] | Plant response rating, Rice [5, 17] | Plant response rating, Rice ([5]; 250 g ai/ha, scale 0 to 100) | Plant response rating, Ducksalad [7, 19] | Plant response rating, Ducksalad [7, 20] | Plant response rating, Ducksalad [7, 17] | Plant response rating, Ducksalad ([7]; 250 g ai/ha, scale 0 to 100) | Plant response rating, Pigweed [8, 13] | Plant response rating, Pigweed [8, 14] | Pigweed plant response rating [8, 15] | Plant response rating, Pigweed [8, 16] | Plant response rating, Corn [9, 13] | Plant response rating, Corn [9, 14] | Corn plant response rating [9, 15] | Plant response rating, Corn [9, 16] | Plant response rating, Barnyardgrass [10, 19] | Plant response rating, Barnyardgrass [10, 20] | Plant response rating, Barnyardgrass [10, 17] | Plant response rating, Barnyardgrass ([10]; 250 g ai/ha, scale 0 to 100) | Plant response rating, Morningglory [11, 13] | Plant response rating, Morningglory [11, 14] | Morningglory plant response rating [11, 15] | Plant response rating, Morningglory [11, 16] | Plant response rating, Sedge, Umbrella [12, 19] | Plant response rating, Sedge, Umbrella [12, 20] | Plant response rating, Sedge, Umbrella [12, 17] | Plant response rating, Sedge, Umbrella ([12]; 250 g ai/ha, scale 0 to 100)
80: Plant response rating, Crabgrass, Large [2, 14] | Crabgrass, Large plant response rating [2, 15] | Plant response rating, Barnyardgrass [6, 18]
30: Plant response rating, Crabgrass, Large [2, 13]
90: Plant response rating, Crabgrass, Large [2, 16] | Plant response rating, Foxtail, Giant [3, 16]

O=C1NCC(c2ccc(Cl)c(Cl)c2)C1C(=O)Nc1ccccc1C(F)(F)F (racemic) [Compound 26]
80: Plant response rating, Ducksalad ([7]; 250 g ai/ha, scale 0 to 100)
0: Plant response rating, Velvetleaf [1, 21] | Plant response rating, Velvetleaf [1, 22] | Plant response rating, Wheat [4, 21] | Plant response rating, Wheat [4, 22] | Plant response rating, Rice [5, 20] | Plant response rating, Rice ([5]; 250 g ai/ha, scale 0 to 100) | Plant response rating, Ducksalad [7, 20] | Plant response rating, Pigweed [8, 21] | Plant response rating, Pigweed [8, 22] | Plant response rating, Corn [9, 21] | Plant response rating, Corn [9, 22] | Plant response rating, Barnyardgrass [10, 20] | Plant response rating, Barnyardgrass ([10]; 250 g ai/ha, scale 0 to 100) | Plant response rating, Morningglory [11, 21] | Plant response rating, Morningglory [11, 22] | Plant response rating, Sedge, Umbrella [12, 20] | Plant response rating, Sedge, Umbrella ([12]; 250 g ai/ha, scale 0 to 100)
70: Plant response rating, Foxtail, Giant [3, 21] | Plant response rating, Barnyardgrass [6, 21] | Plant response rating, Barnyardgrass [6, 22]
60: Plant response rating, Crabgrass, Large [2, 21]
90: Plant response rating, Crabgrass, Large [2, 22] | Plant response rating, Foxtail, Giant [3, 22]

O=C1NCC(c2ccc(F)c(F)c2)C1C(=O)Nc1ccc(F)cc1F (racemic) [Compound 23]
80: Plant response rating, Crabgrass, Large [2, 21] | Plant response rating, Foxtail, Giant [3, 21]
100: Plant response rating, Ducksalad ([7]; 250 g ai/ha, scale 0 to 100)
90: Plant response rating, Crabgrass, Large [2, 22] | Plant response rating, Foxtail, Giant [3, 22] | Plant response rating, Barnyardgrass [6, 21] | Plant response rating, Barnyardgrass [6, 22]
0: Plant response rating, Wheat [4, 21] | Plant response rating, Wheat [4, 22] | Plant response rating, Rice [5, 20] | Plant response rating, Rice ([5]; 250 g ai/ha, scale 0 to 100) | Plant response rating, Pigweed [8, 21] | Plant response rating, Corn [9, 21] | Plant response rating, Corn [9, 22] | Plant response rating, Barnyardgrass [10, 20] | Plant response rating, Barnyardgrass ([10]; 250 g ai/ha, scale 0 to 100) | Plant response rating, Morningglory [11, 21] | Plant response rating, Morningglory [11, 22] | Plant response rating, Sedge, Umbrella [12, 20]
30: Plant response rating, Ducksalad [7, 20] | Plant response rating, Sedge, Umbrella ([12]; 250 g ai/ha, scale 0 to 100)
40: Plant response rating, Velvetleaf [1, 21] | Plant response rating, Velvetleaf [1, 22]

N#Cc1ccccc1NC(=O)C1C(=O)NCC1c1ccc(Cl)c(Cl)c1 (racemic) [Compound 15]
80: Plant response rating, Crabgrass, Large [2, 16]
60: Crabgrass, Large plant response rating [2, 15]
20: Foxtail, Giant plant response rating [3, 15]
0: Plant response rating, Velvetleaf [1, 13] | Plant response rating, Velvetleaf [1, 14] | Velvetleaf plant response rating [1, 15] | Plant response rating, Velvetleaf [1, 16] | Plant response rating, Crabgrass, Large [2, 13] | Plant response rating, Crabgrass, Large [2, 14] | Plant response rating, Foxtail, Giant [3, 13] | Plant response rating, Foxtail, Giant [3, 14] | Plant response rating, Wheat [4, 13] | Plant response rating, Wheat [4, 14] | Wheat plant response rating [4, 15] | Plant response rating, Wheat [4, 16] | Plant response rating, Rice [5, 20] | Plant response rating, Rice ([5]; 250 g ai/ha, scale 0 to 100) | Plant response rating, Barnyardgrass [6, 13] | Plant response rating, Barnyardgrass [6, 14] | Barnyardgrass plant response rating [6, 15] | Plant response rating, Barnyardgrass [6, 18] | Plant response rating, Ducksalad [7, 20] | Plant response rating, Ducksalad ([7]; 250 g ai/ha, scale 0 to 100) | Plant response rating, Pigweed [8, 13] | Plant response rating, Pigweed [8, 14] | Pigweed plant response rating [8, 15] | Plant response rating, Pigweed [8, 16] | Plant response rating, Corn [9, 13] | Plant response rating, Corn [9, 14] | Corn plant response rating [9, 15] | Plant response rating, Corn [9, 16] | Plant response rating, Barnyardgrass [10, 20] | Plant response rating, Barnyardgrass ([10]; 250 g ai/ha, scale 0 to 100) | Plant response rating, Morningglory [11, 13] | Plant response rating, Morningglory [11, 14] | Morningglory plant response rating [11, 15] | Plant response rating, Morningglory [11, 16] | Plant response rating, Sedge, Umbrella [12, 20] | Plant response rating, Sedge, Umbrella ([12]; 250 g ai/ha, scale 0 to 100)
50: Plant response rating, Foxtail, Giant [3, 16]

From patent US10294202B2, “Pyrrolidinones as herbicides” (FMC Corporation, priority 2013, dated 2019)
